“And” between values parts separate entries of the source, which are not always exact repeats. Equal values may be shown once. Toxic doses and inconclusive results are not listed.
System: P388 leukemia ip, CD2F1 mice, survival T/C
Experiment: NCI In Vivo Anticancer Drug Screen. Data for tumor model P388 Leukemia (intraperitoneal) in CD2F1 (CDF1) mice
Conditions: endpoint: median survival time, higher = longer survival
Procedure, shortened: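 Mice carrying the transplanted tumor received test compound or vehicle. Survival was recorded in each group, and the value is the treated-group measurement divided by that of the vehicle-treated control group.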

[1] = dose: 50.0 mg/kg/injection, schedule: Q01DX009 (ip), vehicle: Klucel (hydroxypropylcellulose) (HPC)
[2] = dose: 100.0 mg/kg/injection, schedule: Q01DX009 (ip), vehicle: Klucel (hydroxypropylcellulose) (HPC)
[3] = dose: 200.0 mg/kg/injection, schedule: Q01DX009 (ip), vehicle: Klucel (hydroxypropylcellulose) (HPC)
[4] = dose: 25.0 mg/kg/injection, schedule: Q04DX003 (ip), vehicle: saline with Tween-80
[5] = dose: 50.0 mg/kg/injection, schedule: Q04DX003 (ip), vehicle: saline with Tween-80
[6] = dose: 100.0 mg/kg/injection, schedule: Q04DX003 (ip), vehicle: saline with Tween-80
[7] = dose: 60.0 mg/kg/injection, schedule: Q01DX005 (ip), vehicle: saline with Tween-80
[8] = dose: 120.0 mg/kg/injection, schedule: Q01DX005 (ip), vehicle: saline with Tween-80
[9] = dose: 240.0 mg/kg/injection, schedule: Q01DX005 (ip), vehicle: saline with Tween-80
[10] = dose: 50.0 mg/kg/injection, schedule: Q01DX005 (ip), vehicle: saline with Tween-80
[11] = dose: 100.0 mg/kg/injection, schedule: Q01DX005 (ip), vehicle: saline with Tween-80
[12] = dose: 200.0 mg/kg/injection, schedule: Q01DX005 (ip), vehicle: saline with Tween-80
[13] = dose: 200.0 mg/kg/injection, schedule: Q04DX003 (ip), vehicle: saline with Tween-80
[14] = dose: 400.0 mg/kg/injection, schedule: Q04DX003 (ip), vehicle: saline with Tween-80
[15] = dose: 60.0 mg/kg/injection, schedule: Q01DX005 (ip), vehicle: saline
[16] = dose: 120.0 mg/kg/injection, schedule: Q01DX005 (ip), vehicle: saline
[17] = dose: 240.0 mg/kg/injection, schedule: Q01DX005 (ip), vehicle: saline

CC(NC(=O)C(N)CCC(=O)O)C(=O)O (configuration not stated)
T/C (dose: 50.0 mg/kg/injection, schedule: Q01DX005 (ip), vehicle: saline): 103 % of control
T/C (dose: 100.0 mg/kg/injection, schedule: Q01DX005 (ip), vehicle: saline): 100 % of control
T/C (dose: 200.0 mg/kg/injection, schedule: Q01DX005 (ip), vehicle: saline): 107 % of control

S=C(C(=S)N1CCOCC1)N1CCOCC1
T/C (dose: 25.0 mg/kg/injection, schedule: Q01DX009 (ip), vehicle: Klucel (hydroxypropylcellulose) (HPC)): 110 % of control
T/C (dose: 50.0 mg/kg/injection, schedule: Q01DX001 (ip), vehicle: saline): 100 % of control
T/C [1]: 99 % of control and 101 % of control and 112 % of control
T/C (dose: 100.0 mg/kg/injection, schedule: Q01DX001 (ip), vehicle: saline): 107 % of control
T/C [2]: 101 % of control and 114 % of control
T/C (dose: 200.0 mg/kg/injection, schedule: Q01DX001 (ip), vehicle: saline): 112 % of control
T/C [3]: 103 % of control and 110 % of control and 123 % of control

N=C(N)N1CCNc2ccccc2C1
T/C [4]: 105 % of control
T/C [5]: 99 % of control
T/C [6]: 104 % of control

COc1cccc2c1[n+]([O-])c1cccc(O)c1[n+]2[O-]
T/C (dose: 1.56 mg/kg/injection, schedule: Q01DX009 (ip), vehicle: saline with Tween-80): 112 % of control
T/C (dose: 3.12 mg/kg/injection, schedule: Q01DX009 (ip), vehicle: saline with Tween-80): 109 % of control
T/C (dose: 6.25 mg/kg/injection, schedule: Q01DX009 (ip), vehicle: saline with Tween-80): 114 % of control
T/C (dose: 12.5 mg/kg/injection, schedule: Q01DX009 (ip), vehicle: saline with Tween-80): 124 % of control

C/C(=N\N=C(\[Se])N(C)C)c1ccccn1
T/C (dose: 12.5 mg/kg/injection, schedule: Q04DX003 (ip), vehicle: saline with Tween-80): 106 % of control
T/C [4]: 106 % of control
T/C [5]: 106 % of control

CC(=NCCCCN=C(C)c1cc(O)cc(Br)c1O)c1cc(O)cc(Br)c1O.[Co]
T/C [7]: 90 % of control
T/C [8]: 98 % of control
T/C [9]: 94 % of control

Nc1nc(SCc2ccccc2)sc1C(=O)N(Cc1ccccc1)Cc1ccccc1
T/C [1]: 98 % of control
T/C [2]: 100 % of control
T/C [3]: 100 % of control

CC(C)(C)c1ccc(N)c(N)c1
T/C (dose: 50.0 mg/kg/injection, schedule: Q01DX009 (ip), vehicle: DMSO): 98 % of control
T/C (dose: 100.0 mg/kg/injection, schedule: Q01DX009 (ip), vehicle: DMSO): 99 % of control

C[C@H]1C(=O)CCC2[C@]3(C)CCC4(CO)[C@@H]5CC(C)(C)C(=O)C[C@]5(C)CC[C@]4(C)C3CC[C@@]21C (some centres not stated)
T/C (dose: 7.75 mg/kg/injection, schedule: Q01DX005 (ip), vehicle: Klucel (hydroxypropylcellulose) (HPC)): 98 % of control
T/C (dose: 15.5 mg/kg/injection, schedule: Q01DX005 (ip), vehicle: Klucel (hydroxypropylcellulose) (HPC)): 91 % of control
T/C (dose: 31.0 mg/kg/injection, schedule: Q01DX005 (ip), vehicle: Klucel (hydroxypropylcellulose) (HPC)): 89 % of control

N#Cc1cn(C2OC(CO)C(O)C2O)c2ncnc(N)c12 (configuration not stated)
T/C (dose: 0.05 mg/kg/injection, schedule: Q01DX009 (ip), vehicle: other): 124 % of control
T/C (dose: 0.1 mg/kg/injection, schedule: Q01DX009 (ip), vehicle: other): 155 % of control
T/C (dose: 0.13 mg/kg/injection, schedule: Q04DX003 (ip), vehicle: other): 154 % of control
T/C (dose: 0.15 mg/kg/injection, schedule: Q04DX003 (ip), vehicle: other): 163 % of control
T/C (dose: 0.2 mg/kg/injection, schedule: Q01DX009 (ip), vehicle: other): 120 % of control
T/C (dose: 0.2 mg/kg/injection, schedule: Q04DX003 (ip), vehicle: other): 150 % of control
T/C (dose: 0.4 mg/kg/injection, schedule: Q01DX009 (ip), vehicle: other): 95 % of control
T/C (dose: 1.0 mg/kg/injection, schedule: Q04DX003 (ip), vehicle: saline with Tween-80): 165 % of control
T/C (dose: 2.0 mg/kg/injection, schedule: Q04DX003 (ip), vehicle: saline with Tween-80): 150 % of control
T/C (dose: 4.0 mg/kg/injection, schedule: Q04DX003 (ip), vehicle: saline with Tween-80): 95 % of control
T/C (dose: 29.6 micrograms/kg/injection, schedule: Q04DX003 (ip), vehicle: other): 110 % of control
T/C (dose: 44.0 micrograms/kg/injection, schedule: Q04DX003 (ip), vehicle: other): 120 % of control
T/C (dose: 66.0 micrograms/kg/injection, schedule: Q04DX003 (ip), vehicle: other): 153 % of control

CC(C)=NNC1=NC(CC(C)C)P(=O)(NCCCCNP2(=O)SC(NN=C(C)C)=NC2CC(C)C)S1 (configuration not stated)
T/C [10]: 103 % of control
T/C [11]: 103 % of control
T/C [12]: 101 % of control

CCOC(=O)c1c(N)sc2c1CCCCC2
T/C [6]: 100 % of control
T/C [13]: 104 % of control
T/C [14]: 100 % of control

C=CCO[C@H]1CO[C@H]2[C@@H]1OC[C@H]2OCC=C
T/C [10]: 96 % of control
T/C [11]: 97 % of control
T/C [12]: 99 % of control

COc1ccc(OC)c(CCN2C(=O)c3cccc4c([N+](=O)[O-])ccc(c34)C2=O)c1
T/C [1]: 98 % of control
T/C [2]: 106 % of control
T/C [3]: 113 % of control

CCCCCCCCCCCCCCCC[N+]1([O-])CCCCC1
T/C (dose: 12.5 mg/kg/injection, schedule: Q01DX009 (ip), vehicle: saline): 101 % of control
T/C (dose: 25.0 mg/kg/injection, schedule: Q01DX009 (ip), vehicle: saline): 108 % of control
T/C (dose: 50.0 mg/kg/injection, schedule: Q01DX009 (ip), vehicle: saline): 100 % of control and 107 % of control

CC(C)CCCN(CCCC(C)C)CC(O)c1cc2c(c3ccccc13)CCCC2 (configuration not stated)
T/C [10]: 113 % of control
T/C [11]: 103 % of control
T/C [12]: 113 % of control

CSC1=NC=C(C#N)C2=NC(c3ccccc3)NN12 (configuration not stated)
T/C [10]: 98 % of control
T/C [11]: 97 % of control
T/C [12]: 100 % of control

CCOC(=O)c1c(C)c(C(=O)OCC)n(C)c1C=O
T/C (dose: 100.0 mg/kg/injection, schedule: Q01DX009 (ip), vehicle: saline with Tween-80): 97 % of control
T/C (dose: 200.0 mg/kg/injection, schedule: Q01DX009 (ip), vehicle: saline with Tween-80): 97 % of control
T/C (dose: 400.0 mg/kg/injection, schedule: Q01DX009 (ip), vehicle: saline with Tween-80): 96 % of control

O=C1NC(=O)C2(C(=O)c3cccc4cccc2c34)N1c1ccccc1 (configuration not stated)
T/C (dose: 50.0 mg/kg/injection, schedule: Q01DX009 (ip), vehicle: distilled water + alcohol): 94 % of control
T/C (dose: 100.0 mg/kg/injection, schedule: Q01DX009 (ip), vehicle: distilled water + alcohol): 102 % of control
T/C (dose: 200.0 mg/kg/injection, schedule: Q01DX009 (ip), vehicle: distilled water + alcohol): 100 % of control

O=C(CC(=O)Oc1ccc(Cl)cc1Cl)Oc1ccc(Cl)cc1Cl
T/C [6]: 95 % of control
T/C [13]: 91 % of control
T/C [14]: 100 % of control

Cc1c([N+](=O)[O-])oc2cc3c(cc12)CCCC3
T/C [7]: 91 % of control
T/C [8]: 93 % of control
T/C [9]: 94 % of control

NC(=O)[C@@H]1CCCN1C(=O)c1cccnc1
T/C [15]: 98 % of control
T/C [16]: 97 % of control
T/C [17]: 103 % of control

O=C(NC(=O)c1ccccc1F)Nc1ccc(C(O)(C(F)(F)F)C(F)(F)F)cc1
T/C [10]: 104 % of control
T/C [11]: 98 % of control
T/C [12]: 100 % of control

CNC(=O)NC(c1cc(OC)c(OC)c(OC)c1)c1cc2c(cc1O)OCO2 (configuration not stated)
T/C (dose: 30.0 mg/kg/injection, schedule: Q01DX005 (ip), vehicle: Klucel (hydroxypropylcellulose) (HPC)): 89 % of control
T/C (dose: 60.0 mg/kg/injection, schedule: Q01DX005 (ip), vehicle: Klucel (hydroxypropylcellulose) (HPC)): 87 % of control and 92 % of control
T/C (dose: 240.0 mg/kg/injection, schedule: Q01DX005 (ip), vehicle: Klucel (hydroxypropylcellulose) (HPC)): 87 % of control

CC(C)=CCC(OC(=O)C=C(C)C)c1cc(O)c2c(O)ccc(O)c2c1O.[Ni] (configuration not stated)
T/C (dose: 100.0 mg/kg/injection, schedule: Q04DX002 (ip), vehicle: saline with Tween-80): 111 % of control
T/C (dose: 200.0 mg/kg/injection, schedule: Q04DX002 (ip), vehicle: saline with Tween-80): 105 % of control
T/C (dose: 400.0 mg/kg/injection, schedule: Q04DX002 (ip), vehicle: saline with Tween-80): 114 % of control

CCN(CC)CC(C)(C)C(=O)/C=C/c1ccc(C)cc1
T/C [15]: 103 % of control
T/C [16]: 103 % of control
T/C [17]: 110 % of control

Reference: PubChem BioAssay AID330 (DTP/NCI, 2004)
